Assays:
H358 cells = assay: Inhibition of 3D cell proliferation (3D CellTiter-Glo); format: cell-based; conditions: Homo sapiens, NCI-H358, 168 h, read-out: IC50 (nM), inhibition of 3D proliferation of H358 cells, 7 days
Experimental: H358 cells were seeded in a T75 culture flask and cultured in a RPMI 1640 medium containing 10% FBS for 2 days for subsequent experiments in which the cells would be cultured or seeded on a 384-well plate.
On day 1, the cells were seeded on the 384-well plate, with 40 μL of medium added per well and serially diluted compounds or DMSO added per well, and an additional well without seeded cells but with medium was set up as a blank control. After culture at 37° C., 5% CO2 for 7 days, the plate was added with 3D CellTiter-Glo reagent (Promega, Cat. No. G9683) on day 8, shaken at 320 rpm for 20 min, and left at room temperature for 2 h. Luminescence signals were read on a multifunctional microplate reader. Cell viability inhibition rate was calculated as:
Cell viability inhibition rate=(DMSO group−test compound)/(DMSO group−blank control group)×100%
(§1) IC50 values were calculated using Graphpad 5 software.

[1] = test system: ERK phosphorylation level in DLD-1 cells; assay: Inhibition of ERK phosphorylation level in DLD-1 cells (intracellular western blot); format: cell-based; conditions: Homo sapiens
Experimental: Intracellular western blot quantitative analysis was used to detect the inhibitory level of compounds on ERK phosphorylation in DLD-1 cells.
DLD-1 cells (ATCC, CCL-221) were seeded in a T75 culture flask at 2.5×10^6 cells/flask and cultured in a RPMI 1640 medium containing 10% FBS for 2 days. On day 3, the cells were seeded on a 384-well plate, and cultured overnight at 37° C., 5% CO2. After overnight culture, the plate was added with serially diluted compounds (the final content of DMSO was 0.5%), the negative group was added with DMSO, and incubated in a 37° C., 5% CO2 incubator.
The cells were fixed, washed once with PBS, treated to disrupt membranes, and blocked at room temperature for 1 h. The blocking solution was removed. The plate was added with primary antibody (CST, Cat. No. #4370S), and incubated overnight at 4° C. The plate was washed 3 times with PBST (PBS solution added with 0.05% Tween-20) and soaked for 2 min each time. The plate was added with secondary antibody (LI-COR, Cat. No. 926-32211) and incubated at room temperature in the dark. The plate was washed 3 times with PBST and soaked for 2 min each time. The plate was centrifuged at 1000 rpm for 1 min, scanned on a two-color infrared laser imaging system (Odyssey® CLX) to read the signal.
Relative signal=800-channel signal values/700-channel signal values.
Relative expression level of ERK phosphorylation=(test compound−control compound I)/(DMSO group−control compound I)
as §1

[2] = Pharmacokinetic test in mice; format: in vivo; conditions: mouse, plasma; male ICR mice, oral gavage, 10 mg/kg
Experimental: Male ICR mice (20 to 25 g) were used and fasted overnight. Three mice were taken and orally administered by gavage (10 mg/kg). Blood was collected before the administration, and at 15 min, 30 min, 1 h, 2 h, 4 h, 8 h and 24 h after the administration. 6,800 g of the blood samples were centrifuged at 2 to 8° C. for 6 min, and plasma was collected and stored at −80° C. The plasma at each time point was taken and added with an acetonitrile solution containing internal standard in 3 to 5 times the amount, vortexed and mixed for 1 min, and centrifuged at 13,000 rpm/min at 4° C. for 10 min. The supernatant was collected, added with water in 3 times the amount, and mixed. An appropriate amount of the mixture was taken for LC-MS/MS analysis. The main pharmacokinetic parameters were analyzed using WinNonlin 7.0 software with non-compartmental model.

KRAS G12C-SOS1 = KRAS G12C-SOS1 (Homo sapiens (Human), UniProt Q07889); assay: Inhibition test of compounds on KRAS G12C::SOS1 binding; conditions: GST-KRAS G12C, His-SOS1
KRAS G12C-SOS1, sequence (Q07889 whole entry, stated change not applied): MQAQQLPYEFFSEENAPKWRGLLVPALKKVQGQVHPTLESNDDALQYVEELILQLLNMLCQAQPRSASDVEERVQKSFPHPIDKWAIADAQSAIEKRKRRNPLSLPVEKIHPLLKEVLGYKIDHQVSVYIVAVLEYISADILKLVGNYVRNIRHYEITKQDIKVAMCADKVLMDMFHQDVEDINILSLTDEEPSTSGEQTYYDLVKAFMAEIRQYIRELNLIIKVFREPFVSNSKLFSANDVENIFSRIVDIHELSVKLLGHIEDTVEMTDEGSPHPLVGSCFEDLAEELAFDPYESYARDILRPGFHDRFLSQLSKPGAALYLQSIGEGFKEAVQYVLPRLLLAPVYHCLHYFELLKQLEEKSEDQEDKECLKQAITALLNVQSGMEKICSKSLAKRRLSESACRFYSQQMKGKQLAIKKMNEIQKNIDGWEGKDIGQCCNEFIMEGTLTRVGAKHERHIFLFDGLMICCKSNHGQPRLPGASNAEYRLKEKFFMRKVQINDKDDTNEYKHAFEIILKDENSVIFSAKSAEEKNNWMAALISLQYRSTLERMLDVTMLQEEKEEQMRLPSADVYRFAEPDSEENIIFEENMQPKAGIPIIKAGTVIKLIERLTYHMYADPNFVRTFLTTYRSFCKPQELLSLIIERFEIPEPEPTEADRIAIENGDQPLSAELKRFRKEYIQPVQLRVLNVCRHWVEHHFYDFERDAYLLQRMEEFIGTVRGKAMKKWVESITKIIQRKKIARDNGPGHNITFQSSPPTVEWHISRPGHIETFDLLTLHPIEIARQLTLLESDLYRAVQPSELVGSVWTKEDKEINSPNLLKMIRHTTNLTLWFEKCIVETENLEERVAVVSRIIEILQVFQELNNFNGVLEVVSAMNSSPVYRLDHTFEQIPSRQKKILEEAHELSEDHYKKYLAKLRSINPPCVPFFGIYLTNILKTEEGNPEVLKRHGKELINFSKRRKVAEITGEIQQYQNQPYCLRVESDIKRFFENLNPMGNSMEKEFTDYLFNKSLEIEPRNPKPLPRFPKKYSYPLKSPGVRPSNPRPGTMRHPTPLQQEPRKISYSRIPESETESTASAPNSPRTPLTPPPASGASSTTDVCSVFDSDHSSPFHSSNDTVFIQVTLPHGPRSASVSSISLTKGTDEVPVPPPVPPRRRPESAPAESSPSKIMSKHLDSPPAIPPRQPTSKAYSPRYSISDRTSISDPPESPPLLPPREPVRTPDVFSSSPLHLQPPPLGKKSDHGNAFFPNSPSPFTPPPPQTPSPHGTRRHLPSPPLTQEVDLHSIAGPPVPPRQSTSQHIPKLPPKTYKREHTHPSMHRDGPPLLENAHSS
Experimental: The compound to be tested was prepared into a 10 mM stock solution with DMSO, and the compound was serially diluted using 1× test buffer. 0.1 μL of the compound solution with different concentrations was transferred to a 384-well plate. […] 5 μL of His-SOS1 was added to the 384-well plate, centrifuged at 1000 rpm for 1 min, and incubated at room temperature for 15 min.
After incubation, 10 μL of a mixed solution of anti-6his-Tb monoclonal antibody (Cisbio, Cat. No. 61HI2TLA) and anti-GST-XL665 monoclonal antibody (Cisbio, Cat. No. 61GSTXLA) was added to the test well, centrifuged at 1000 rpm for 1 min, and incubated at room temperature for 1 h.
After incubation, the fluorescence signal ratios at 665 nm and 615 nm were read on a multifunctional microplate reader (Perkin Elmer, Envision 2104), and the IC50 values were calculated using Graphpad 5 software.

SMILES	IC50 (H358 cells)	IC50 [1]	IC50 (KRAS G12C-SOS1)	other results
CC(=O)N1CCC(C)(n2cc3c(N[C@H](C)c4cccc(S(F)(F)(F)(F)F)c4)nc(C)nc3cc2=O)CC1 [Compound I-17, (R)-6-(1-acetyl-4-methylpiperidin-4-yl)-2-methyl-4-((1-(3-(pentafluorosulfanyl)phenyl)ethyl)amino)pyrido[4,3-d]pyrimidin-7(6H)-one]	12.1 nM	119 nM	–	–
Cc1nc(N[C@H](C)c2cccc(S(F)(F)(F)(F)F)c2)c2cn(C3(C)CCOC3)c(=O)cc2n1 (stereo partly drawn) [Compound I-20, 2-methyl-6-(3-methyltetrahydrofuran-3-yl)-4-(((R)-1-(3-(pentafluorosulfanyl)phenyl)ethyl)amino)pyrido[4,3-d]pyrimidin-7(6H)-one]	31 nM	92 nM	–	–
Cc1nc(N[C@H](C)c2cccc(C(F)F)c2F)c2cn(C3(C(F)F)CC3)c(=O)cc2n1 [Control compound II, reference compound]	–	–	–	AUC(0-t) [2]: 1000 ng·h/mL; Cmax [2]: 669 ng/mL; Tmax [2]: 30 min; half-life [2]: 57.6 min
COCC1(n2cc3c(N[C@H](C)c4cccc(S(F)(F)(F)(F)F)c4)nc(C)nc3cc2=O)CC1 [Compound I-13, (R)-6-(1-(methoxymethyl)cyclopropyl)-2-methyl-4-((1-(3-(pentafluorosulfanyl)phenyl)ethyl)amino)pyrido[4,3-d]pyrimidin-7(6H)-one]	15.7 nM	109 nM	–	–
Cc1nc(N[C@H](C)c2cccc(S(F)(F)(F)(F)F)c2)c2cn(C3(C)CC3)c(=O)cc2n1 [Compound I-22, (R)-2-methyl-6-(1-methylcyclopropyl)-4-((1-(3-(pentafluorosulfanyl)phenyl)ethyl)amino)pyrido[4,3-d]pyrimidin-7(6H)-one]	10.7 nM	–	21.7 nM	–
Cc1nc(N[C@H](C)c2cccc(OC(F)F)c2F)c2cn(C3(C(F)F)CC3)c(=O)cc2n1 [Compound I-12, (R)-4-((1-(3-(difluoromethoxy)-2-fluorophenyl)ethyl)amino)-6-(1-(difluoromethyl)cyclopropyl)-2-methylpyrido[4,3-d]pyrimidin-7(6H)-one]	–	196 nM	22.2 nM	–
CC(=O)N1CCC(C)(n2cc3c(N[C@H](C)c4cccc(S(F)(F)(F)(F)F)c4)nc(C)nc3cc2=O)C1 (stereo partly drawn) [Compound I-18, 6-(1-acetyl-3-methylpyrrolidin-3-yl)-2-methyl-4-(((R)-1-(3-(pentafluorosulfanyl)phenyl)ethyl)amino)pyrido[4,3-d]pyrimidin-7(6H)-one]	9.2 nM	115 nM	–	–
Cc1nc(N[C@H](C)c2cccc(S(F)(F)(F)(F)F)c2)c2cn([C@H]3C[C@H](F)C3)c(=O)cc2n1 [Compound I-19, 6-((1R,3R)-3-fluorocyclobutyl)-2-methyl-4-(((R)-1-(3-(pentafluorosulfanyl)phenyl)ethyl)amino)pyrido[4,3-d]pyrimidin-7(6H)-one]	137 nM	131 nM	9.5 nM	–
Cc1nc(N[C@H](C)c2cccc(S(F)(F)(F)(F)F)c2)c2cn(C3CC(F)(F)C3)c(=O)cc2n1 [Compound I-16, (R)-6-(3,3-difluorocyclobutyl)-2-methyl-4-((1-(3-(pentafluorosulfanyl)phenyl)ethyl)amino)pyrido[4,3-d]pyrimidin-7(6H)-one]	–	–	16.1 nM	–
Cc1nc(N[C@H](C)c2cccc(S(F)(F)(F)(F)F)c2)c2cn(C3(C)CCOCC3)c(=O)cc2n1 [Compound I-21, (R)-2-methyl-6-(4-methyltetrahydro-2H-pyran-4-yl)-4-((1-(3-(pentafluorosulfanyl)phenyl)ethyl)amino)pyrido[4,3-d]pyrimidin-7(6H)-one]	85.1 nM	141 nM	6.9 nM	–
Cc1nc(N[C@H](C)c2cccc(S(F)(F)(F)(F)F)c2)c2cn([C@H]3C[C@](C)(O)C3)c(=O)cc2n1 [Compound I-15, 6-((1r,3R)-3-hydroxy-3-methylcyclobutyl)-2-methyl-4-(((R)-1-(3-(pentafluorosulfanyl)phenyl)ethyl)amino)pyrido[4,3-d]pyrimidin-7(6H)-one]	–	–	14.4 nM	–
